Data on nine compounds can be found in patent US7078411B2, “Phospholipid transfer protein (PLTP) and cholestoral metabolism” (priority 2001, dated 2006).

Entries after “also recorded” stand apart in the source; their conditions may differ.

The subject of data set [1] is cultured tumor cell lines. Particulars: Table 1. From the text:
To determine whether the induction of PLTP expression is topotecan specific, we evaluated the effects of camptothecin and some of its derivatives, and compared them against some protoberberines, which are a new class of organic cations that are dual poisons of topoisomerases I and II (3–5). Berberine is an isoquinoline plant alkaloid.

A further data set deals with PLTP expression. In words: Northern blot analysis of PLTP expression in HepG2 cells. In kind it is cell-based, human. As to conditions: for induction of PLTP expression: 500 nM, 24 hrs (FIG. 5). Here is the method: Dose response induction of PLTP was performed in HepG2 cells for 24 hrs. RNAs isolated were separated on agarose gel and then transferred to nitrocellulose filters for hybridization with a labeled full-length PLTP cDNA probe. […] Lane 1, control (untreated); 2, 1 nM; 3, 20 nM; 4, 100 nM; 5, 500 nM; and 6, 1,000 nM topotecan expression. […] This may be a result of the inhibition of transcription by topotecan at the higher dosage.
HepG2 cells were treated with the indicated drugs (500 nM) for 24 hrs. RNAs were then harvested and fractionated on agarose gel and then transferred to nitrocellulose filters for hybridization with a full length PLTP cDNA probe.
We first examined topotecan-induced PLTP expression in an independent dose response study by Northern blot analysis. […] This may be a result of the inhibition of transcription by topotecan at the higher dosage. […]

In data set [2] the test system is PLTP promoter. In kind it is cell-based, human. Particulars: HepG2/PLTPpLuc; for specificity of induction of PLTP promoter activity: 24 hours (FIG. 14). The text has this:
FIG. 11 is a schematic drawing of the promoter of the phospholipid transfer protein (PLTP) gene. A 1.6 kb fragment of the PLTP gene promoter derived from a BAC clone was PCR amplified and then subcloned into a modified pXP1 luciferase reporter plasmid vector. The modified vector contained the neomycin resistance marker gene.
HepG2 cells were permanently transfected with the construct shown in FIG. 11, and selected for resistance to G418, an aminoglycoside antibiotic. Clone 1, a G418 resistant cell line isolated from the selection, designated HepG2/PLTPpLuc, was utilized for testing the effect of topotecan on induction of PLTP promoter activity. The transfectant cell line, HepG2/PLTPpLuc, was treated with topotecan (500 nM) for approximately 24 hours. Cell extracts were obtained at the end of incubation and the luciferase assay was performed with them. The luciferase activity of the topotecan treated cells (+) was plotted relative to the control (−).
FIG. 13 illustrates the time course analysis of induction of PLTP promoter activity by topotecan in HepG2/PLTPpLuc cells. The HepG2/PLTPpLuc cells were treated with 500 nM of topotecan. Cell extracts were obtained at various time points following treatment with topotecan (0, 4, 8, 12, 16, and 24 hours) and assayed for luciferase activity, which was plotted as a function of time.
The HepG2/PLTPpLuc cells were treated with either topotecan, taxol, or melphalan for 24 hours. Cell extracts were then obtained for the luciferase assay.
The luciferase reporter plasmid was constructed by cloning the PLTP promoter derived from a BAC clone into the pXP2 luciferase reporter vector. A neomycin selectable marker gene driven by the CMV early promoter was further subcloned into the PLTP-luciferase reporter plasmid (FIG. 11).
Approximately 10 μg of the PLTP-luciferase reporter plasmid was transfected using lipofectamine into HepG2 cells for about 4 hrs. Cells were washed and then further cultured and selected in the presence of 1.6 mg/ml of G418 for neomycin resistance. Media were changed every 3 days with fresh G418 added at the above concentration. Approximately 14 days later, colonies that emerged from the selection were picked using cloning cylinders and the clones were transferred to 24-well cluster dishes for further culturing and selection.
At confluence, cells were next transferred to 12-well dishes and aliquots were also transferred to 24-well dishes for screening with topotecan for induction of the PLTP promoter activity. Luciferase assay was performed using a standard luciferase assay kit from Promega.

The test system of data set [3] is phospholipid transfer protein (PLTP) gene. In words: DNA microarray expression profiling of topotecan-treated HepG2 cells. In kind it is cell-based, human. Here is the method:
FIG. 1 is a DNA microarray presenting expression profiling of topotecan induced HepG2 cells. HepG2 cells were treated with 500 nM of topotecan in time course study for the indicated time points in the figure. RNAs were isolated, labeled and hybridized to the array. Scan image were analyzed using the Pathway and the Cluster softwares. The results of cluster analysis are shown in TreeView. Transition of color to red indicates the upregulation, and to green is the downregulation of gene expression.
FIG. 2 is a scanned image of the PLTP gene induced by topotecan. HepG2 cells were treated with topotecan in time-course and dose response studies. The microarrays were exposed to phosphorimage screen and the scanned images were analyzed with the Pathway software. Enlarged scanned images for the induction of PLTP gene with time and dose are shown.
FIG. 3 is a DNA microarray presenting expression profiling of topotecan induced HepG2 cells. HepG2 cells were treated with various concentrations of topotecan. RNAs were isolated, labeled and hybridized to the array. Scan images were analyzed using the Pathway and the Cluster softwares. The results of cluster analysis are shown in TreeView. A representative set of genes with altered expression was plotted in the line graphs. Transition of color to red indicates the upregulation, and to green is the downregulation of gene expression.
We have used DNA microarray to monitor the expression profiles of cells in response to anticancer drug treatments, and also comparing these profiles to those obtained from cancer cells that have been selected for resistance to the corresponding agents. […]
The HepG2 cells were either transiently treated with 500 nM of topotecan for various times (1–24 hrs), or with various doses of topotecan (1–1000 nM) for 24 hrs. […] The scanned images were processed and analyzed on the Pathways™ software. Tab delimited files generated from Pathways™ were imported into Microsoft Excel® for sorting by fold changes and intensity levels (radioactivity, cpm).

Data set [4] has as its system PLTP promoter. In words: PLTP promoter-luciferase reporter, transient transfection in HepG2 cells (dual luciferase assay). As to conditions: 24 hrs. In kind it is cell-based, human. Here is the method: FIGS. 6A and 6B depict the transactivation of the PLTP promoter by topotecan. FIG. 6A is a schematic drawing of the PLTP gene promoter-luciferase reporter construct. The promoter was PCR amplified from a BAC clone containing the genomic sequence for the human PLTP gene. FIG. 6B graphically presents the results calibrated in terms of luciferase activity, of a study where HepG2 cells were transfected with the PLTP promoter-luciferase reporter and were then treated with various doses of topotecan for 24 hrs. Cell extracts were harvested for the dual luciferase assay (Promega, Wis.). The relative luciferase activity has been normalized with the internal control renella luciferase activity cotransfected with the promoter reporter construct, to monitor transfection efficiency.
We also determined whether induction of PLTP gene expression by topotecan is transcriptionally activated. Approximately 1.5 kb of the PLTP promoter sequence was obtained by the polymerase chain reaction (PCR) amplification of a human BAC clone (RP3-337018) containing the genomic sequence of PLTP. The PCR product consisting of the promoter region was sequenced verified and then subcloned into a luciferase reporter vector pGL2-Basic vector (Promega, Wis.) (FIG. 6A). […]

For `CCC1(O)C(=O)OCc2c1cc1n(c2=O)Cc2cc3c(N)c4c(cc3nc2-1)OCO4` [9-NH2-10,11-MD-CPT(R)], in data set [1], the Cytotoxicity entry is given as “Inactive”.

Turning to `CCC1(O)C(=O)OCc2c1cc1n(c2=O)Cc2cc3c(N)c4c(cc3nc2-1)OCO4` [9-NH2-10,11-MD-CPT(S)], in data set [1], the Cytotoxicity result is on record as “Active”. Further, the “induction of PLTP expression” value with PLTP expression is “induced”.

As for `CC[C@@]1(O)C(=O)OCc2c1cc1n(c2=O)Cc2cc3c(N)cccc3nc2-1` [9-NH2-CPT(S)], the Cytotoxicity result in data set [1] was “Active”. Besides, the “induction of PLTP expression” value in the data set with PLTP expression was “induced”.

As to `CC[C@@]1(O)C(=O)OCc2c1cc1n(c2=O)Cc2cc3ccccc3nc2-1` [Camptothecin (CPT), Camptothecin], the Cytotoxicity result in data set [1] is “Active”. For the same compound, the “induction of PLTP expression” value with PLTP expression is “induced”.

For `CCc1c2c(nc3ccc(OC(=O)N4CCC(N5CCCCC5)CC4)cc13)-c1cc3c(c(=O)n1C2)COC(=O)[C@]3(O)CC` [Irinotecan (CPT-11), Irinotecan], the “induction of PLTP expression” value in the data set with PLTP expression is reported as “failed to activate PLTP expression”.

For `N[C@@H](Cc1ccc(N(CCCl)CCCl)cc1)C(=O)O` [melphalan], the “specificity of induction of PLTP promoter activity” value (“specificity” for short) in the data set with PLTP promoter [2] was “no significant stimulation”.

Turning to `CC(=O)O[C@H]1C(=O)[C@@]2(C)[C@H]([C@H](OC(=O)c3ccccc3)[C@]3(O)C[C@H](OC(=O)[C@H](O)[C@@H](NC(=O)c4ccccc4)c4ccccc4)C(C)=C1C3(C)C)[C@]1(OC(C)=O)CO[C@@H]1C[C@@H]2O` [taxol], in the data set on PLTP promoter [2], the “specificity” value is “no significant stimulation”.

In the case of `CC[C@@]1(O)C(=O)OCc2c1cc1n(c2=O)Cc2cc3c(CN(C)C)c(O)ccc3nc2-1` [topotecan], the “induction of PLTP gene expression” value in data set [3] (500 nM topotecan, after 24 hrs of exposure) is “approximately 20 fold”. In addition, in data set [3] (500 nM topotecan, time course), the “onset of PLTP expression after exposure” value lay within 10 to 15 h. Also, the “induction of PLTP expression, dose response” value is on record as “elevated in a dose dependent manner” in data set [3] (1–1000 nM, 24 hrs) and “dose dependent induction; also recorded: elevated with increasing doses” in the data set on PLTP expression (1–1000 nM, 24 hrs). Further, the “induction of PLTP promoter activity” value in the data set with PLTP promoter [2] (500 nM, approximately 24 hours (FIG. 12)) is “approximately 20 fold”. Also, the “specificity” value in the data set with PLTP promoter [2] is on record as “specific for topotecan”. In the data set on PLTP promoter [4] (1 μM), the “PLTP promoter activity at the highest dose” value is recorded as “inhibition of the promoter activity”. Further, the “transactivation of PLTP promoter, dose response” value in the data set on PLTP promoter [4] (various doses) is given as “transactivated by topotecan dose-dependently”. Moreover, the “induction of PLTP expression” value in the data set with PLTP expression was “induced”. Further, the “PLTP expression at the highest dose” value with PLTP expression (1 μM, 24 hrs) is on record as “reversed”.

Regarding `CC[C@]1(O)C[C@@H]2CN(CCc3c([nH]c4ccccc34)[C@@](C(=O)OC)(c3cc4c(cc3OC)N(C)[C@H]3[C@@](O)(C(=O)OC)[C@H](OC(C)=O)[C@]5(CC)C=CCN6CC[C@]43[C@@H]65)C2)C1` [vinblastine], the “induction of PLTP expression” value in the data set with PLTP expression was “failed to induced PLTP gene expression; also recorded: did not induce PLTP expression”.
